Read-outs that look alike come from different tables or passages of the source.
Legend:
Format in all cases: cell-based
[1] = system: Ba/F3_L858R/T790M/C797S cells; assay: Ba/F3_L858R/T790M/C797S cell proliferation inhibition assay (CellTiter-Glo); conditions: Mus musculus
Description: Ba/F3_L858R/T790M/C797S Cell Proliferation Inhibition Assay
In the assay, the inhibition effect of the compounds on the proliferation of Ba/F3_L858R/T790M/C797S cells was tested by adopting a CellTiter-Glo method, and the concentration IC50 of the compound for inhibiting half maximal growth of cells was obtained.
Ba/F3_L858R/T790M/C797S cells were constructed by Pharmaron Beijing Co., Ltd.
1640 medium, fetal bovine serum (FBS), Penicillin-Streptomyces, and GlutaMAX-I Supplement, purchased from GIBCO.
(§1) Brigatinib, purchased from Selleck.
(§2) CellTiter-Glo reagent, purchased from Promega.
1) Ba/F3_L858R/T790M/C797S cells were seeded in a 384-well plate at a density of 700 cells/well with 30 μL/well.
(§3) 2) Day 0: […] of gradiently-diluted compounds to be tested with a final concentration of DMSO of 0.1% was added to plate using Echo, and the plate was incubated in a cell incubator for 72 h (37° C., 5% CO2). […] of DMSO was added into each well in blank control group.
(§4) 3) Day 3: 30 μL Cell Titer-Glo reagent was added to each well, and the plate was in the dark under room temperature for 30 min.
(§5) 4) The chemiluminescent signal was detected by an Envision plate reader (PerkinElmer).
(§6) 5) Data analysis was performed using GraphPad Prism software to give the IC50 for compounds.

[2] = system: Ba/F3_Del19/T790M/C797S cells; assay: Ba/F3_Del19/T790M/C797S cell proliferation inhibition assay (CellTiter-Glo); conditions: Mus musculus
Description: Ba/F3_Del19/T790M/C797S Cell Proliferation Inhibition Assay
In the assay, the inhibition effect of the compounds on the proliferation of Ba/F3_Del19/T790M/C797S cells was tested by adopting a CellTiter-Glo method, and the concentration IC50 of the compound for inhibiting half maximal growth of cells was obtained.
Ba/F3_Del19/T790M/C797S, purchased from Kyinno Biotechnology Co., Ltd. 1640 medium, fetal bovine serum (FBS), Penicillin-Streptomyces, and GlutaMAX-I Supplement, purchased from GIBCO.
as §1, §2
1) Ba/F3_Del19/T790M/C797S cells were seeded in a 384-well plate at a density of 700 cells/well with 30 μL/well.
as §3, §4, §5
Data analysis was performed using GraphPad Prism 6 software to give the IC50 for compounds.

A431 cells (EGFR WT) = assay: A431 cell proliferation inhibition assay (CellTiter-Glo); conditions: Homo sapiens
Description: A431 Cell Proliferation Inhibition Assay
In the assay, the inhibition effect of the compounds on the proliferation of A431 cells was tested by adopting a CellTiter-Glo method, and the concentration IC50 of the compound for inhibiting half maximal growth of cells was obtained.
A431 cells, purchased from ATCC.
DMEM medium, fetal bovine serum (FBS), and Penicillin-Streptomycin, purchased from GIBCO.
as §1, §2
1) A431 cells were seeded in a 384-well plate at a density of 800 cells/well with 30 μL/well, and the plate was cultured in a cell incubator for 24 h (37° C., 5% CO2).
as §3, §4, §5, §6

[3] = BaF3, cell proliferation, 72 h, CellTiter-Glo, read-out: Ba/F3 (L858R/T790M/C797S) IC50
[4] = BaF3, cell proliferation, 72 h, CellTiter-Glo, read-out: Ba/F3 (Del19/T790M/C797S) IC50
[5] = A-431, cell proliferation, 72 h, CellTiter-Glo, read-out: A431 EGFR WT IC50
[6] = BaF3, 72 h, read-out: Ba/F3 (L858R/T790M/C797S) IC50(nM)
[7] = BaF3, 72 h, read-out: Ba/F3 (Del19/T790M/C797S) IC50(nM)
[8] = A-431, 72 h, read-out: A431 EGFR WT IC50(nM)

Molecule `COc1cc2c(cc1Nc1ncc(Br)c(Nc3ccccc3P(C)(C)=O)n1)-c1cnn(C)c1CCN2C1CN(CCF)C1` [Compound 69] has an IC50 [1, 3] of under 10 nM, an IC50 [2, 4] of under 10 nM and an IC50 (A431 cells (EGFR WT); [5]) of 100 to 1000 nM.
`COc1cc2c(cc1Nc1ncc(Br)c(Nc3ccc4nccnc4c3P(C)(C)=O)n1)-c1cnn(C)c1CCN2C1CN(CC2CC2)C1` [Compound 70] was tested, and the IC50 [1, 3] was under 10 nM, the IC50 [2, 4] was under 10 nM and the IC50 (A431 cells (EGFR WT); [5]) was 10 to 50 nM.
Work on `COc1cc2c(cc1Nc1ncc(Br)c(Nc3ccc4nccnc4c3P(C)(C)=O)n1)-c1cnn(C)c1CCN2C1CC1` [Compound 74] yielded an IC50 [1, 3] of under 10 nM, an IC50 [2, 4] of under 10 nM and an IC50 (A431 cells (EGFR WT); [5]) of 100 to 1000 nM.
For `COc1cc2c(cc1Nc1ncc(Br)c(Nc3ccc4nccnc4c3P(C)(C)=S)n1)-c1cnn(C)c1CCN2C1CCN(C)CC1` [Compound 76], the IC50 [1, 6] was under 10 nM, the IC50 [2, 7] was under 10 nM and the IC50 (A431 cells (EGFR WT); [8]) was 50 to 100 nM.
`COc1cc2c(cc1Nc1ncc(Br)c(Nc3ccc4nccnc4c3P(C)(C)=O)n1)-c1cnn(C)c1CCN2C1CCCN(C)C1` (stereo not drawn) [Compound 84] showed an IC50 [1, 3] of under 10 nM, an IC50 [2, 4] of under 10 nM and an IC50 (A431 cells (EGFR WT); [5]) of 10 to 50 nM.
For `COc1cc2c(cc1Nc1ncc(C)c(Nc3ccc4nccnc4c3P(C)(C)=O)n1)-c1cnn(C)c1CCN2C(C)C` [Compound 85], the IC50 [1, 3] was under 10 nM, the IC50 [2, 4] was under 10 nM and the IC50 (A431 cells (EGFR WT); [5]) was 100 to 1000 nM.
With `COc1cc2c(cc1Nc1ncc(Br)c(Nc3ccc4nccnc4c3P(C)(C)=O)n1)-c1cnn(C)c1CCN2C1CCOCC1` [Compound 88] the IC50 [1, 3] was under 10 nM, the IC50 [2, 4] was under 10 nM and the IC50 (A431 cells (EGFR WT); [5]) was 50 to 100 nM.
Molecule `COc1cc2c(cc1Nc1ncc(Br)c(Nc3ccc4nccnc4c3P(C)(C)=O)n1)-c1cnn(C)c1CCN2C1CC2(C1)CN(C)C2` [Compound 89] has an IC50 [1, 3] of 10 to 50 nM, an IC50 [2, 4] of 10 to 50 nM and an IC50 (A431 cells (EGFR WT); [5]) of 10 to 50 nM.
`COc1cc2c(cc1Nc1ncc(Br)c(Nc3ccc4nccnc4c3P(C)(C)=O)n1)-c1cnn(C)c1CCN2C1CC2(C1)CN(C(C)C)C2` [Compound 90] was tested, and the IC50 [1, 3] was under 10 nM, the IC50 [2, 4] was under 10 nM and the IC50 (A431 cells (EGFR WT); [5]) was 10 to 50 nM.
With `COc1cc2c(cc1Nc1ncc(Br)c(Nc3ccc4nccnc4c3P(C)(C)=S)n1)-c1cnn(C)c1CCN2C1CC2(C1)CN(C)C2` [Compound 93] the IC50 [1, 6] was 10 to 50 nM, the IC50 [2, 7] was under 10 nM and the IC50 (A431 cells (EGFR WT); [8]) was 10 to 50 nM.
`COc1cc2c(cc1Nc1ncc(Br)c(Nc3ccc4nccnc4c3NS(C)(=O)=O)n1)-c1cnn(C)c1CCN2` [Compound 114] gave an IC50 [1, 6] of under 10 nM, an IC50 [2, 7] of under 10 nM and an IC50 (A431 cells (EGFR WT); [8]) of 100 to 1000 nM.
In the case of `COc1cc2c(cc1Nc1ncc(Br)c(Nc3ccccc3N(C(C)C)S(C)(=O)=O)n1)-c1cnn(C)c1CCN2C(C)C` [Compound 124], the IC50 [1, 3] is reported as 10 to 50 nM, the IC50 [2, 4] is reported as 10 to 50 nM and the IC50 (A431 cells (EGFR WT); [5]) is reported as over 1000 nM.
`CNS(=O)(=O)c1ccccc1Nc1nc(Nc2cc3c(cc2OC)N(C(C)C)CCc2c-3cnn2C)ncc1Br` [Compound 127] showed an IC50 [1, 3] of 100 to 1000 nM, an IC50 [2, 4] of 100 to 1000 nM and an IC50 (A431 cells (EGFR WT); [5]) of 100 to 1000 nM.
For `COc1cc2c(cc1Nc1ncc(Br)c(Nc3ccc4nccnc4c3NS(C)(=O)=O)n1)-c1cnn(C)c1CCN2CC(C)C` [Compound 133], the IC50 [1, 3] was under 10 nM, the IC50 [2, 4] was under 10 nM and the IC50 (A431 cells (EGFR WT); [5]) was 100 to 1000 nM.
`CCN1CCc2c(cnn2C)-c2cc(Nc3ncc(Br)c(Nc4ccc5nccnc5c4NS(C)(=O)=O)n3)c(OC)cc21` [Compound 139] showed an IC50 [1, 3] of under 10 nM, an IC50 [2, 4] of under 10 nM and an IC50 (A431 cells (EGFR WT); [5]) of 100 to 1000 nM.

From patent US20240034743A9, “TRICYCLIC COMPOUNDS AS EGFR INHIBITORS” (QILU PHARMACEUTICAL CO., LTD., priority 2020, published 2024)
